How the values were obtained:
[1] = tested on: multiple myeloma cell lines (t(4;14) and non-t(4;14)); experiment: 14 day LTP assay in multiple myeloma cells; format: cell-based, human; conditions: FIG. 1 scatter graph
[2] = tested on: KMS-34 cells; experiment: 14 day KMS-34 long term proliferation (LTP) assay; conditions: KMS-34, t(4;14) multiple myeloma cell line; 14-day assay; FIG. 2
Protocol: 14 Day KMS-34 Long Term Proliferation (LTP) Assay
Incubate plates for 96 hrs.
The final concentration is 1 μm.
To calculate growth for days 4, 7, 11, and 14:
1. Calculate the split factor for day 4 to 7, day 7 to 11, and day 11-14 The split factor is the viable cells/mL on Day X (either 4, 7, or 11) divided by the density the cells are being split back to.
2. For growth of cells from day 4 to 7, multiply the day 7 viable cells/mL density by the split factor from day 4.
4. For growth of cells from Day 11 to 14, multiply the Day 14 viable cells/mL density by the days 4, 7, and 11 split factors.
5. Plot growth on semi-log chart (viable cells/mL on Y axis, in log, and days on X axis).
From 5 mM to 0.25 μm. […] Mix well by pipetting up and down.

[3] = tested on: KMS-11 tumor; experiment: Anti-tumor activity in human myeloma KMS-11 tumor-bearing NOD SCID mice (subcutaneous xenograft); format: in vivo
From the text: Evaluation of the Anti-Tumor Activity of Cpd. […] Based on the tumor volume and body weight, mice were assigned to respective groups such that the average starting tumor size and body weight was the same for each treatment group. […] The tumor cells were routinely subcultured before confluence, not to exceed 4-5 passages. The cells growing in an exponential growth phase were harvested and counted for tumor inoculation. […] The treatment was started when the mean tumor size reached 118 mm^3. Mice were then assigned to groups such that the mean tumor volume was the same for each treatment group and time point. […] Tumor Measurements The measurement of tumor size was conducted twice weekly with a caliper and the tumor volume (mm3) is estimated using the formula: TV=a×b×b/2, where “a” and “b” are long and short diameters of a tumor, respectively. The TVs are used for calculation of the tumor growth inhibition and tumor growth delay. […] The “[…]” and “TVinitial” are the mean tumor volumes on the final day and initial day of dosing. After take down 5 mice of G2 G5 post the final dosing, the remaining mice were maintained for monitoring tumor outgrowth twice weekly. […] Animals showing obvious signs of severe distress and/or pain were humanely sacrificed by carbon dioxide followed by cervical dislocation to ensure death. Samples Collection Tumor samples and plasma were collect at the indicated day. Data Acquisition and Statistical Analysis Data Acquisition: Protocol-required measurements and observations were recorded manually on appropriate forms, or directly on a computerized database. Statistical Analysis: All statistical tests were conducted, and the level of significance was set at 5% or P<0.05. The group means, standard deviation were calculated for all measurement parameters as study designed. Two-way RM ANOVA followed by Tukeys post hoc comparisons of the means. The therapeutic effects of compound as a single agent in the KMS-11 subcutaneous xenograft model were evaluated.

[4] = G2, 31.25 mg/kg, p.o., BID × 28 days, PG-Day 25

Compound: CC(=O)N1CCN([C@H]2CCC[C@@H](NC(=O)c3cc4c(F)ccc(C)c4[nH]3)C2)CC1 [Cpd. No. 15, N-((1R,3S)-3-(4-acetylpiperazin-1-yl)cyclohexyl)-4-fluoro-7-methyl-1H-indole-2-carboxamide]
- anti-proliferative effects in t(4;14) and non-t(4;14) multiple myeloma cell lines [1]: selective anti-proliferative effects
- type of response of KMS-34 cells [2]: cytotoxic response
- Tumor volume (Mean ± SEM) ([3]; G2, 31.25 mg/kg p.o. BID 28 days, PG-D1 (D 7)): 119 ± 6 mm3
- Tumor volume (Mean ± SEM) ([3]; G2, 31.25 mg/kg p.o. BID 28 days, PG-D4 (D 10)): 225 ± 21 mm3
- Tumor volume (Mean ± SEM) ([3]; G2, 31.25 mg/kg p.o. BID 28 days, PG-D7 (D 13)): 271 ± 19 mm3
- Tumor volume (Mean ± SEM) ([3]; G2, 31.25 mg/kg p.o. BID 28 days, PG-D11 (D 17)): 408 ± 46 mm3
- Tumor volume (Mean ± SEM) ([3]; G2, 31.25 mg/kg p.o. BID 28 days, PG-D14 (D 20)): 478 ± 54 mm3
- Tumor volume (Mean ± SEM) ([3]; G2, 31.25 mg/kg p.o. BID 28 days, PG-D18 (D 24)): 609 ± 71 mm3
- Tumor volume (Mean ± SEM) ([3]; G2, 31.25 mg/kg p.o. BID 28 days, PG-D21 (D 27)): 686 ± 80 mm3
- Tumor volume (Mean ± SEM) ([3]; G2, 31.25 mg/kg p.o. BID 28 days, PG-D25 (D 31)): 763 ± 97 mm3
- Tumor volume post the final dosing (Mean ± SEM) ([3]; G2, 31.25 mg/kg p.o. BID 28 days, PG-D28 (D 34)): 882 ± 131 mm3
- Tumor volume post the final dosing (Mean ± SEM) ([3]; G2, 31.25 mg/kg p.o. BID 28 days, PG-D32 (D 38)): 1123 ± 149 mm3
- Tumor volume post the final dosing (Mean ± SEM) ([3]; G2, 31.25 mg/kg p.o. BID 28 days, PG-D35 (D 41)): 1499 ± 196 mm3
- Tumor volume post the final dosing (Mean ± SEM) ([3]; G2, 31.25 mg/kg p.o. BID 28 days, PG-D39 (D 45)): 1747 ± 243 mm3
- Tumor Size at PG-Day 25 (Mean ± SEM) ([3]; G2, 31.25 mg/kg, p.o., BID × 28 days): 763 ± 97 mm3
- TGI [3, 4]: 74%
- ΔT/ΔC [3, 4]: 26%
- Tumor volume (Mean ± SEM) ([3]; G3, 62.5 mg/kg p.o. BID 28 days, PG-D1 (D 7)): 117 ± 6 mm3
- Tumor volume (Mean ± SEM) ([3]; G3, 62.5 mg/kg p.o. BID 28 days, PG-D4 (D 10)): 178 ± 11 mm3
- Tumor volume (Mean ± SEM) ([3]; G3, 62.5 mg/kg p.o. BID 28 days, PG-D7 (D 13)): 216 ± 11 mm3
- Tumor volume (Mean ± SEM) ([3]; G3, 62.5 mg/kg p.o. BID 28 days, PG-D11 (D 17)): 231 ± 16 mm3
- Tumor volume (Mean ± SEM) ([3]; G3, 62.5 mg/kg p.o. BID 28 days, PG-D14 (D 20)): 184 ± 17 mm3
- Tumor volume (Mean ± SEM) ([3]; G3, 62.5 mg/kg p.o. BID 28 days, PG-D18 (D 24)): 176 ± 22 mm3
- Tumor volume (Mean ± SEM) ([3]; G3, 62.5 mg/kg p.o. BID 28 days, PG-D21 (D 27)): 129 ± 25 mm3
- Tumor volume (Mean ± SEM) ([3]; G3, 62.5 mg/kg p.o. BID 28 days, PG-D25 (D 31)): 115 ± 30 mm3
- Tumor volume post the final dosing (Mean ± SEM) ([3]; G3, 62.5 mg/kg p.o. BID 28 days, PG-D28 (D 34)): 117 ± 36 mm3
- Tumor volume post the final dosing (Mean ± SEM) ([3]; G3, 62.5 mg/kg p.o. BID 28 days, PG-D32 (D 38)): 65 ± 23 mm3
- Tumor volume post the final dosing (Mean ± SEM) ([3]; G3, 62.5 mg/kg p.o. BID 28 days, PG-D35 (D 41)): 150 ± 60 mm3
- Tumor volume post the final dosing (Mean ± SEM) ([3]; G3, 62.5 mg/kg p.o. BID 28 days, PG-D39 (D 45)): 309 ± 108 mm3
- Tumor Size at PG-Day 25 (Mean ± SEM) ([3]; G3, 62.5 mg/kg, p.o., BID × 28 days): 115 ± 30 mm3
- ΔT/ΔC ([3]; G3, 62.5 mg/kg, p.o., BID × 28 days, PG-Day 25): 0%
- Tumor volume (Mean ± SEM) ([3]; G4, 125 mg/kg p.o. BID 18 days then BID(3D− 4D+) 7 days, PG-D1 (D 7)): 117 ± 6 mm3
- Tumor volume (Mean ± SEM) ([3]; G4, 125 mg/kg p.o. BID 18 days then BID(3D− 4D+) 7 days, PG-D4 (D 10)): 191 ± 11 mm3
- Tumor volume (Mean ± SEM) ([3]; G4, 125 mg/kg p.o. BID 18 days then BID(3D− 4D+) 7 days, PG-D7 (D 13)): 219 ± 9 mm3
- Tumor volume (Mean ± SEM) ([3]; G4, 125 mg/kg p.o. BID 18 days then BID(3D− 4D+) 7 days, PG-D11 (D 17)): 196 ± 11 mm3
- Tumor volume (Mean ± SEM) ([3]; G4, 125 mg/kg p.o. BID 18 days then BID(3D− 4D+) 7 days, PG-D14 (D 20)): 119 ± 10 mm3
- Tumor volume (Mean ± SEM) ([3]; G4, 125 mg/kg p.o. BID 18 days then BID(3D− 4D+) 7 days, PG-D18 (D 24)): 99 ± 16 mm3
- Tumor volume (Mean ± SEM) ([3]; G4, 125 mg/kg p.o. BID 18 days then BID(3D− 4D+) 7 days, PG-D21 (D 27)): 85 ± 20 mm3
- Tumor volume (Mean ± SEM) ([3]; G4, 125 mg/kg p.o. BID 18 days then BID(3D− 4D+) 7 days, PG-D25 (D 31)): 131 ± 39 mm3
- Tumor volume post the final dosing (Mean ± SEM) ([3]; G4, 125 mg/kg p.o. BID 18 days then BID(3D− 4D+) 7 days, PG-D28 (D 34)): 99 ± 20 mm3
- Tumor volume post the final dosing (Mean ± SEM) ([3]; G4, 125 mg/kg p.o. BID 18 days then BID(3D− 4D+) 7 days, PG-D32 (D 38)): 239 ± 68 mm3
- Tumor volume post the final dosing (Mean ± SEM) ([3]; G4, 125 mg/kg p.o. BID 18 days then BID(3D− 4D+) 7 days, PG-D35 (D 41)): 421 ± 108 mm3
- Tumor volume post the final dosing (Mean ± SEM) ([3]; G4, 125 mg/kg p.o. BID 18 days then BID(3D− 4D+) 7 days, PG-D39 (D 45)): 757 ± 215 mm3
- Tumor Size at PG-Day 25 (Mean ± SEM) ([3]; G4, 125 mg/kg, p.o., BID × 18 days, BID(3D− 4D+) × 7 days): 131 ± 39 mm3
- ΔT/ΔC ([3]; G4, 125 mg/kg, p.o., BID × 18 days, BID(3D− 4D+) × 7 days, PG-Day 25): 1%
- Tumor volume (Mean ± SEM) ([3]; G5, 175 mg/kg p.o. BID 11 days then BID(3D− 4D+) 14 days, PG-D1 (D 7)): 119 ± 6 mm3
- Tumor volume (Mean ± SEM) ([3]; G5, 175 mg/kg p.o. BID 11 days then BID(3D− 4D+) 14 days, PG-D4 (D 10)): 192 ± 13 mm3
- Tumor volume (Mean ± SEM) ([3]; G5, 175 mg/kg p.o. BID 11 days then BID(3D− 4D+) 14 days, PG-D7 (D 13)): 221 ± 17 mm3
- Tumor volume (Mean ± SEM) ([3]; G5, 175 mg/kg p.o. BID 11 days then BID(3D− 4D+) 14 days, PG-D11 (D 17)): 199 ± 24 mm3
- Tumor volume (Mean ± SEM) ([3]; G5, 175 mg/kg p.o. BID 11 days then BID(3D− 4D+) 14 days, PG-D14 (D 20)): 167 ± 27 mm3
- Tumor volume (Mean ± SEM) ([3]; G5, 175 mg/kg p.o. BID 11 days then BID(3D− 4D+) 14 days, PG-D18 (D 24)): 189 ± 32 mm3
- Tumor volume (Mean ± SEM) ([3]; G5, 175 mg/kg p.o. BID 11 days then BID(3D− 4D+) 14 days, PG-D21 (D 27)): 214 ± 45 mm3
- Tumor volume (Mean ± SEM) ([3]; G5, 175 mg/kg p.o. BID 11 days then BID(3D− 4D+) 14 days, PG-D25 (D 31)): 225 ± 45 mm3
- Tumor volume post the final dosing (Mean ± SEM) ([3]; G5, 175 mg/kg p.o. BID 11 days then BID(3D− 4D+) 14 days, PG-D28 (D 34)): 269 ± 146 mm3
- Tumor volume post the final dosing (Mean ± SEM) ([3]; G5, 175 mg/kg p.o. BID 11 days then BID(3D− 4D+) 14 days, PG-D32 (D 38)): 589 ± 378 mm3
- Tumor volume post the final dosing (Mean ± SEM) ([3]; G5, 175 mg/kg p.o. BID 11 days then BID(3D− 4D+) 14 days, PG-D35 (D 41)): 732 ± 422 mm3
- Tumor volume post the final dosing (Mean ± SEM) ([3]; G5, 175 mg/kg p.o. BID 11 days then BID(3D− 4D+) 14 days, PG-D39 (D 45)): 1183 ± 686 mm3
- Tumor Size at PG-Day 25 (Mean ± SEM) ([3]; G5, 175 mg/kg, p.o., BID × 18 days, BID(3D− 4D+) × 14 days): 225 ± 45 mm3
- ΔT/ΔC ([3]; G5, 175 mg/kg, p.o., BID × 18 days, BID(3D− 4D+) × 14 days, PG-Day 25): 4%

Source: patent US12116358B2, “Substituted indoles and methods of use thereof” (EPIZYME, INC., priority 2018, dated 2024)
